# Assay: Inhibition of Influenza A virus H5N1 neuraminidase
row,Structure (SMILES),IC50 [nM]
1,Cc1ccc(-c2nnc(SCC(=O)NCc3ccc(Cl)c(Cl)c3)o2)cc1,2050
2,COc1cccc(CCNC(=O)CSc2nnc(-c3ccc(C)cc3)o2)c1,150000
3,O=C(CSc1nnc(-c2ccc(F)cc2)o1)NCc1ccc(Cl)c(Cl)c1,450
4,COc1cccc(CCNC(=O)CSc2nnc(-c3ccc(O)cc3)o2)c1,360
5,O=C(CSc1nnc(-c2ccccc2)o1)NCCc1cccc(F)c1,3580
6,COc1ccc(-c2nnc(SCC(=O)NCc3ccc(Cl)c(Cl)c3)o2)cc1,3950
7,COc1cccc(CCNC(=O)CSc2nnc(-c3ccccc3)o2)c1,260
8,O=C(CSc1nnc(-c2ccc(O)cc2)o1)NCc1ccc(Cl)c(Cl)c1,1180
9,CCC(CC)O[C@@H]1C=C(C(=O)O)C[C@H](N)[C@H]1NC(C)=O [OSELTAMIVIR CARBOXYLATE],82
10,COc1cccc(CCNC(=O)CSc2nnc(-c3ccc(F)cc3)o2)c1,56700
11,O=C(CSc1nnc(-c2ccc(O)cc2)o1)NCCc1cccc(F)c1,27
12,O=C(CSc1nnc(-c2ccccc2)o1)NCc1ccc(Cl)c(Cl)c1,130
13,Cc1cc([N+](=O)[O-])ccc1NC(=O)CSc1nnc(COc2ccc3ccccc3c2)o1,6150
14,O=C(CSc1nnc(-c2ccc(Cl)cc2)o1)NCc1ccc(Cl)c(Cl)c1,32

# Reference: ChEMBL document CHEMBL5154723 (Bioorg Med Chem, 2022)
